Test results: patent US6489098B1, “Means and methods for monitoring nucleoside reverse transcriptase inhibitor antiretroviral therapy and guiding therapeutic decisions in the treatment of HIV/AIDS” (ViroLogic, Inc., priority 1998, dated 2002)
Entries after “also recorded” stand apart in the source; their conditions may differ.

Columns and labels:
[1] = tested on: patient RTV-136, RTV-240, RTV-955 and RTV-960 (A62V, V75I, F77L, F116Y, Q151M); test: Phenotypic susceptibility assay, patient isolates with multi-NRTI resistance mutations; format: cell-based, HIV-1; conditions: for susceptibility compared to wild-type control RTV: patient RTV pools with MDR mutations
Method: (§1) In these experiments patient-derived segment(s) corresponding to the HIV protease and reverse transcriptase coding regions were either patient-derived segments amplified by the reverse transcription-polymerase chain reaction method (RT-PCR) using viral RNA isolated from viral particles present in the serum of HIV-infected individuals or were mutants of wild type HIV-1 made by site directed mutagenesis of a parental clone of resistance test vector DNA. Isolation of viral RNA was performed using standard procedures (e.g. RNAgents Total RNA Isolation System, Promega, Madison Wis. or RNAzol, Tel-Test, Friendswood, Tex.). The RT-PCR protocol was divided into two steps. A retroviral reverse transcriptase [e.g. Moloney MuLV reverse transcriptase (Roche Molecular Systems, Inc., Branchburg, N.J.), or avian myeloblastosis virus (AMV) reverse transcriptase, (Boehringer Mannheim, Indianapolis, Ind.)] was used to copy viral RNA into cDNA. The cDNA was then amplified using a thermostable DNA polymerase [e.g. Taq (Roche Molecular Systems, Inc., Branchburg, N.J.), Tth (Roche Molecular Systems, Inc., Branchburg, N.J.), PrimeZyme (isolated from Thermus brockianus, Biometra, Gottingen, Germany)] or a combination of thermostable polymerases as described for the performance of “long PCR” (Barnes, W. M., (1994) Proc. Natl. Acad. Sci, USA 91, 2216-2220) [e.g. Expand High Fidelity PCR System (Taq+Pwo), (Boehringer Mannheim. Indianapolis, Ind.) OR GeneAmp XL PCR kit (Tth+Vent), (Roche Molecular Systems, Inc., Branchburg, N.J.)].
(§2) Resistance test vectors incorporating the “test” patient-derived segments were constructed as described in PCT International Application No. PCT/US97/01609, filed Jan. 29, 1997 using an amplified DNA product of 1.5 kB prepared by RT-PCR using viral RNA as a template and oligonucleotides PDSApa (1) and PDSAge (2) as primers, followed by digestion with ApaI and AgeI or the isoschizimer PINAI. To ensure that the plasmid DNA corresponding to the resultant resistance test vector comprises a representative sample of the HIV viral quasi-species present in the serum of a given patient, many (>100) independent E. coli transformants obtained in the construction of a given resistance test vector were pooled and used for the preparation of plasmid DNA.
(§3) Resistance tests were carried out with resistance test vectors using two host cell types. Resistance test vector viral particles were produced by a first host cell (the resistance test vector host cell) that was prepared by transfecting a packaging host cell with the resistance test vector and the packaging expression vector. The resistance test vector viral particles were then used to infect a second host cell (the target host cell) in which the expression of the indicator gene is measured.
(§4) The resistance test vectors containing a functional luciferase gene cassette were constructed and host cells were transfected with the resistance test vector DNA. The resistant test vectors contained patient-derived reverse transcriptase and protease sequences that were either susceptible or resistant to the antiretroviral agents, such as nucleoside reverse transcriptase inhibitors, non-nucleoside reverse transcriptase inhibitors and protease inhibitors. The resistance test vector viral particles produced by transfecting the resistance test vector DNA into host cells, either in the presence or absence of protease inhibitors, were used to infect target host cells grown either in the absence of NRTI or NNRTI or In the presence of increasing concentrations of the drug. The amount of luciferase activIty produced in infected target host cells in the presence of drug was compared to the amount of luciferase produced in infected target host cells in the absence of drug. Drug resistance was measured as the amount of drug required to inhibit by 50% the luciferase activity detected in the absence of drug (Inhibitory concentration 50%, IC50). […]

[2] = tested on: HIV strains resistant to abacavir; conditions: cited from earlier work
[3] = tested on: patient RTV-621, RTV-285, RTV-690, RTV-770 and RTV-771 (T69SSA, T69SSG, T69SSS); test: Phenotypic susceptibility assay, patient isolates with T69SSX mutations/insertions; format: cell-based, HIV-1; conditions: for susceptibility compared to wild-type control RTV: patient samples with insertions at 69
Method: as §1, §2, §3, §4

[4] = tested on: HIV-1 RT mutant resistance test vector Q151M-RTV; test: Phenotypic susceptibility assay, site directed RTV Q151M; format: cell-based; conditions: for effect on susceptibility (words): RTV with Q151M vs wild type RTV
Method: as §3
The resistance test vectors containing a functional luciferase gene cassette were constructed and host cells were transfected with the resistance test vector DNA. The resistant test vectors contained patient-derived reverse transcriptase and protease sequences that were either susceptible or resistant to the antiretroviral agents, such as nucleoside reverse transcriptase inhibitors, non-nucleoside reverse transcriptase inhibitors and protease inhibitors. The resistance test vector viral particles produced by transfecting the resistance test vector DNA into host cells, either in the presence or absence of protease inhibitors, were used to infect target host cells grown either in the absence of NRTI or NNRTI or In the presence of increasing concentrations of the drug. The amount of luciferase activIty produced in infected target host cells in the presence of drug was compared to the amount of luciferase produced in infected target host cells in the absence of drug. Drug resistance was measured as the amount of drug required to inhibit by 50% the luciferase activity detected in the absence of drug (Inhibitory concentration 50%, IC50). The IC50 values were determined by plotting percent drug inhibition vs. log 10 drug concentration.
Host cells were seeded in 10-cm-diameter dishes and were transfected several days after plating with resistance test vector plasmid DNA and the envelope expression vector. Transfections were performed using a calcium-phosphate precipitation procedure. The cell culture media containing the DNA precipitate was replaced with fresh medium, from one to 24 hours, after transfection. Cell culture media containing resistance test vector viral particles was harvested one to four days after transfection and was passed through a […] filter before being stored at −80° C. HIV capsid protein (p24) levels in the harvested cell culture media were determined by an EIA method as described by the manufacturer (SIAC; Frederick, Md.). Before infection, target cells (293 and 293/T) were plated in cell culture media. Control infections were performed using cell culture media from mock transfections (no DNA) or transfections containing the resistance test vector plasmid DNA without the envelope expression plasmid. One to three or more days after infectIon the media was removed and cell lysis buffer (Promega) was added to each well. Cell lysates were assayed for luciferase activity (FIG. 3). The inhibitory effect of the drug was determined using the following equation:
% luciferase inhibition=1−(RLUluc[drug]÷RLUluc)×100 […]
Genotypic changes that are observed to correlate with changes in phenotypic patterns of drug susceptibility are evaluated by construction of resistance test vectors containing the specific mutation on a defined, wild-type (drug susceptible) genetic background. […]

| SMILES | susceptibility compared to wild-type control RTV [1] | fold resistance ([2]; multiple mutations (at least three)) [fold] | susceptibility compared to wild-type control RTV [3] | cross resistance of abacavir-resistant strains [2] | effect on susceptibility (words) [4] | fold reduced susceptibility ([1]; four patient viruses with multi-NRTI resistance mutations (FIG. 4)) | fold reduced susceptibility ([3]; four patient viruses with T69SSX mutations/insertions (FIG. 5)) | fold reduction in susceptibility ([4]; RTV with Q151M vs control RTV) |
| --- | --- | --- | --- | --- | --- | --- | --- | --- |
| Nc1nc(NC2CC2)c2ncn([C@H]3C=C[C@@H](CO)C3)c2n1 [ABC, abacavir] | decreases in susceptibility | 10 | decreased susceptibility |  |  |  |  |  |
| Cc1cn([C@H]2C[C@H](N=[N+]=[N-])[C@@H](CO)O2)c(=O)[nH]c1=O [AZT, zidovudine] | decreases in susceptibility |  | decreased susceptibility | not to d4T or ZDV | Significant changes in susceptibility; also recorded: reduced d4T and AZT susceptibility |  |  |  |
| Cc1cn([C@H]2C=C[C@@H](CO)O2)c(=O)[nH]c1=O [d4T, stavudine] | decrease in susceptibility to d4T; also recorded: decreases in susceptibility |  | decrease in susceptibility to d4T; also recorded: significant reduction in d4T susceptibility; also recorded: decreased susceptibility | not to d4T or ZDV | less susceptible to d4T than the wild type control RTV; also recorded: reduced d4T and AZT susceptibility | 4-12 fold | 2-10 fold | approximately three-fold |
| Nc1ccn([C@H]2CC[C@@H](CO)O2)c(=O)n1 [ddC, zalcitabine] | decreases in susceptibility |  | decreased susceptibility | Cross resistance | Significant changes in susceptibility |  |  |  |
| O=c1[nH]cnc2c1ncn2[C@H]1CC[C@@H](CO)O1 [ddI, didanosine] | decreases in susceptibility |  | decreased susceptibility | Cross resistance | Significant changes in susceptibility |  |  |  |
